Test results taken from patent US6451816B1, “Use of pyridyl alkane, pyridyl alkene and/or pyridyl alkine acid amides in the treatment of tumors or for immunosuppression” (Klinge Pharma GmbH, priority 1997, dated 2002).
Where a name gives a salt, the structure may show the parent alone.

melting point [°C]	SMILES
178 to 188	Cl.Cl.O=C(C=Cc1cccnc1)NCCCCC1CCNCC1
156	O=C(C=Cc1cccnc1)NCCCCC1CCN(C(c2ccccc2)c2ccccc2)CC1 (as salt: methanesulfonate) [Substance 104, N-[4-(1-Diphenylmethylpiperidin-4-yl)-butyl]-3-(pyridin-3-yl)-acrylamide]
72 to 74	O=C(C=Cc1cccnc1)NCC1CN(C(c2ccccc2)c2ccccc2)C1 [Substance 2, N-(1-Diphenylmethylazetidin-3-ylmethyl)-3-(pyridin-3-yl)-acrylamide]
88 to 90	O=C(C=Cc1cccnc1)NCCCCC1CCN(Cc2ccccc2)CC1 [Substance 46, N-[4-(1-Benzylpiperidin-4-yl)-butyl]-3-(pyridin-3-yl)-acrylamide]
100 to 102	O=C(C=Cc1cccnc1)NCCCOC1CCN(Cc2ccccc2)CC1 [Substance 55, N-[3-(1-Benzylpiperidine-4-yloxy)-propyl]-3-(pyridin-3-yl)-acrylamide]
141 to 143	O=C(C=Cc1cccnc1)NCCC1CCN(C(c2ccccc2)c2ccccc2)CC1 [Substance 95, N-[2-(1-Diphenylmethylpiperidin-4-yl)-ethyl]-3-(pyridin-3-yl)-acrylamide]
109 to 110	O=C(CCc1cccnc1)NCCCC1CCN(C(c2ccccc2)c2ccccc2)CC1 [Substance 96, N-[3-(1-Diphenylmethylpiperidin-4-yl)-propyl]-3-(pyridin-3-yl)-propionamide]
115 to 117	CCN(CCCCC1CCN(C(c2ccccc2)c2ccccc2)CC1)C(=O)/C=C/c1cccnc1 [Substance 123, N-[4-(1-Diphenylmethylpiperidin-4-yl)-butyl]-N-ethyl-3-(pyridin-3-yl)-acrylamide]
103 to 105	O=C(COc1cccnc1)NCCCCC1CCN(C(c2ccccc2)c2ccccc2)CC1 [Substance 129, N-[4-(1-Diphenylmethylpiperidin-4-yl)-butyl]-2-(pyridin-3-yloxy)-acetamide]
164 to 166	O=C(C=CC=Cc1cccnc1)NCCCCC1CCN(C(c2ccccc2)c2ccccc2)CC1 [Substance 132, N-[4-(1-Diphenylmethylpiperidine-4-yl)-butyl]-5-(pyridin-3-yl)-2,4-pentadienoic Acid Amide]
112 to 114	O=C(CCc1cccnc1)NCCCCCC1CCN(C(c2ccccc2)c2ccccc2)CC1 [Substance 142, N-[5-(1-Diphenylmethylpiperidin-4-yl)-pentyl]-3-(pyridin-3-yl)-propionamide]
108	O=C(C=Cc1cccnc1)NCCCCC1CCN(C(c2ccc(F)cc2)c2ccc(F)cc2)CC1 [Substance 171, N-(4-{1-[bis-(4-Fluorophenyl)-methyl]-piperidin-4-yl}-butyl)-3-(pyridin-3-yl)-acrylamide]
110 to 112	O=C(CCc1cccnc1)NCCCCC1CCN(C2c3ccccc3COc3ccccc32)CC1 (stereo not drawn) [Substance 230, N-{4-[1-(6,11-Dihydrodibenzo[b,e]-oxepin-11-yl)-piperidine-4-yl]-butyl}-3-(pyridin-3-yl)-propionamide]
80 to 82	O=C(C=Cc1cccnc1)NCCCCC1CCN(C(=O)c2cccc3c2-c2ccccc2C3=O)CC1 [Substance 277, N-{4-[1-(9-oxo-9H-Fluorene-4-carbonyl)-piperidine-4-yl]-butyl}-3-(pyridin-3-yl)-acrylamide]
103 to 105	O=C(CCc1cccnc1)NCCCCC1CCN(S(=O)(=O)c2ccc3ccccc3c2)CC1 [Substance 337, N-{4-[1-(2-Naphthylsulfonyl)-piperidin-4-yl]-butyl}-3-(pyridin-3-yl)-propionamide]
